Patent US11878975B2, “Substituted indole compounds useful as TLR inhibitors” (BRISTOL-MYERS SQUIBB COMPANY, priority 2017, dated 2024)

Key:
Type in all cases: cell-based
human TLR9 = molecular target: T1, human TLR9 (Homo sapiens, UniProt Q9NR96); assay: TLR9 inhibition reporter assay (HEK-Blue cells, SEAP reporter, ODN2006 stimulation); conditions: HEK-Blue cells overexpressing human TLR9, SEAP reporter, ODN2006 5 nM
T1 construct: host or cells: HEK-Blue cells
T1 sequence (Q9NR96 26-1032): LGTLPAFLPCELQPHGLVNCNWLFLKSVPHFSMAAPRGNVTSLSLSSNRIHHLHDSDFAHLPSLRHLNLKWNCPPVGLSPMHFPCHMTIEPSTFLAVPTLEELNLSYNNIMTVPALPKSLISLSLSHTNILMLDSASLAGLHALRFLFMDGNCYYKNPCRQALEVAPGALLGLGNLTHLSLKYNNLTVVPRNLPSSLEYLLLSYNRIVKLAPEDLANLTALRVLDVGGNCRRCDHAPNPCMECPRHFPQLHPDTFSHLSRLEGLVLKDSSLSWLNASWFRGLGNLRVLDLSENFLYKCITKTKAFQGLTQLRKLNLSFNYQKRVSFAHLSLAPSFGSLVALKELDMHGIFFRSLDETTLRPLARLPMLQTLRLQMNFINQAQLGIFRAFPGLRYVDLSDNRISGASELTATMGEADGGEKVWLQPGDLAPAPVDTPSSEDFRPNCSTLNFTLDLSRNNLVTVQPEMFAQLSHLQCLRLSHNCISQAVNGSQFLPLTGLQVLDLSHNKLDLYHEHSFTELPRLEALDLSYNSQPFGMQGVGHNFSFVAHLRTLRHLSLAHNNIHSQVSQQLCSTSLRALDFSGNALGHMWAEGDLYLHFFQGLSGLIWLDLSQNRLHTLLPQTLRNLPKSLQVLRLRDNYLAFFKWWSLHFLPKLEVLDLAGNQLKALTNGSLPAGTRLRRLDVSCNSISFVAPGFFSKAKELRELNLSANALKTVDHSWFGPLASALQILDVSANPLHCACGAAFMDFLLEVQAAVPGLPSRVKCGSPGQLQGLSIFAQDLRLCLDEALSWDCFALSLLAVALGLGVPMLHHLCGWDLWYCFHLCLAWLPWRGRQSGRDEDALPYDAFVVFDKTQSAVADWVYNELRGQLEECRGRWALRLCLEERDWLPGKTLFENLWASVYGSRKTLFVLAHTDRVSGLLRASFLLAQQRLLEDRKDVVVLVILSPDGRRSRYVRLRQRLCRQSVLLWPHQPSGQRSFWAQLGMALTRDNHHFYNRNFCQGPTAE
How it was run: (§1)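 Percent inhibition is derived from SEAP signal, scaled between agonist-plus-DMSO wells and wells given a known inhibitor. Test compounds (0.05 nM–50 μM) are pre-incubated 30 min at room temperature before agonist addition (TLR7: 7.5 μM gardiquimod; TLR8: 15.9 μM R848; TLR9: 5 nM ODN2006) and 22 h culture at 37 °C.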

human TLR7 = molecular target: T2, human TLR7 (Homo sapiens, UniProt Q9NYK1); assay: TLR7 inhibition reporter assay (HEK-Blue cells, SEAP reporter, gardiquimod stimulation); conditions: HEK-Blue cells overexpressing human TLR7, SEAP reporter, gardiquimod 7.5 μM
T2 construct: host or cells: HEK-Blue cells
T2 sequence (Q9NYK1 27-1049): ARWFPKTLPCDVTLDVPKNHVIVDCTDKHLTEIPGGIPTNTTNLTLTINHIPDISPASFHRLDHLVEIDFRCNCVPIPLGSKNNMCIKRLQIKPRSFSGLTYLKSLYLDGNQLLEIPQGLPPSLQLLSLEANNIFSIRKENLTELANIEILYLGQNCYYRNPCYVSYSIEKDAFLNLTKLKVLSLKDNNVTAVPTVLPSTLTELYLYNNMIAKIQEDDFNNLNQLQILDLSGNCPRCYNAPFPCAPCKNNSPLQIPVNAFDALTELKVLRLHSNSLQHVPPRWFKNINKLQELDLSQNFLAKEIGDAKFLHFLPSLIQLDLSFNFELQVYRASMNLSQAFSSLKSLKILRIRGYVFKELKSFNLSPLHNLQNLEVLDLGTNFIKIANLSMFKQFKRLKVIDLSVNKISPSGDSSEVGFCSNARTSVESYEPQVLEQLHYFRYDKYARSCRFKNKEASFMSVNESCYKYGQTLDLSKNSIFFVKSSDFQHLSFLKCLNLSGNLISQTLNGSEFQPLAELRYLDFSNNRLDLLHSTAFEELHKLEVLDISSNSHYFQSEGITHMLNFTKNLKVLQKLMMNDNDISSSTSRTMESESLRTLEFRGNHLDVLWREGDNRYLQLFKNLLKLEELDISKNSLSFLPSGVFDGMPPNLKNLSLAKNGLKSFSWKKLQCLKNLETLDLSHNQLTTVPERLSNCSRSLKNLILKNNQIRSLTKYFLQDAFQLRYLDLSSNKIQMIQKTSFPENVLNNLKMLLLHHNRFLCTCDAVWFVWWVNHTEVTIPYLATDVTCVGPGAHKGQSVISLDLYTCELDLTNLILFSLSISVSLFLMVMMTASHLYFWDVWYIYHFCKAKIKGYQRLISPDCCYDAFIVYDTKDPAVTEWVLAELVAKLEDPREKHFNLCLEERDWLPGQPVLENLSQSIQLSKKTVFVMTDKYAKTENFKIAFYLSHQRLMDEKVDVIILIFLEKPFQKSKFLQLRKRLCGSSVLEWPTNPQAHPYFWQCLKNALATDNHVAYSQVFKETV
How it was run: as §1

human TLR8 = molecular target: T3, human TLR8 (Homo sapiens, UniProt Q9NR97); assay: TLR8 inhibition reporter assay (HEK-Blue cells, SEAP reporter, R848 stimulation); conditions: HEK-Blue cells overexpressing human TLR8, SEAP reporter, R848 15.9 μM
T3 construct: host or cells: HEK-Blue cells
T3 sequence (Q9NR97 27-1041): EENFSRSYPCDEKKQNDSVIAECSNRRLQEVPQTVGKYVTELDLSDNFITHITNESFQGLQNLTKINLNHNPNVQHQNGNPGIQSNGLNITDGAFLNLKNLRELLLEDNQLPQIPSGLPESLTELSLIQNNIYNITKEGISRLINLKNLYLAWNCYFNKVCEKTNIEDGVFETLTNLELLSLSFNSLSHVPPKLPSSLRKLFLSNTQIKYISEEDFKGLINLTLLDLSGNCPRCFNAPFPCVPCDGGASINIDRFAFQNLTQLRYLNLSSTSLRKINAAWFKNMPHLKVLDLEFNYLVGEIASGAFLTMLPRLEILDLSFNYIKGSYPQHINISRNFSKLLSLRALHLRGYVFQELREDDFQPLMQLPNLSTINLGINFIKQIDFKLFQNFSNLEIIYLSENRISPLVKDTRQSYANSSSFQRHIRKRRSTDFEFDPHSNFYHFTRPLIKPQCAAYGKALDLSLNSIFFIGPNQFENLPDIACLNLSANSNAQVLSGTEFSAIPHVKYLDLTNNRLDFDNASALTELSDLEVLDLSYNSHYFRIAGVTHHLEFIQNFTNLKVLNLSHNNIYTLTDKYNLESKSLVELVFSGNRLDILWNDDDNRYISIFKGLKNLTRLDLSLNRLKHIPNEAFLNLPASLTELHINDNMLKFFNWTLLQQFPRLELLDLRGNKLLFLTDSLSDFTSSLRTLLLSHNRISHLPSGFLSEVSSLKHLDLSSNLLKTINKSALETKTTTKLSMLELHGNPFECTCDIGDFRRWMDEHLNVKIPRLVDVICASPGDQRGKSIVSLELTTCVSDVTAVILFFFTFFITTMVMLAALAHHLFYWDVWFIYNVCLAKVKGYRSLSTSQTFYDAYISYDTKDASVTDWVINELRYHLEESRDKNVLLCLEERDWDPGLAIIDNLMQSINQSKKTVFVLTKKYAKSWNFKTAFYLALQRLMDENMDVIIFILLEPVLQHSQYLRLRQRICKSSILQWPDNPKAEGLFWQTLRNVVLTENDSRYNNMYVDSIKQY
How it was run: as §1

Row | SMILES | IC50 (human TLR9) | IC50 (human TLR7) | IC50 (human TLR8)
1 | Cc1cc(-c2[nH]c3ccc(C4CCC(N(C)C(=O)CN(C)C)CC4)cc3c2C(C)C)cn2ncnc12 (stereo not drawn) [Example 149] | 2300 nM | 0.43 nM | 4.6 nM
2 | COc1cc(-c2[nH]c3ccc(C4CCC(N(C)CCS(C)(=O)=O)CC4)cc3c2C(C)C)cn2ncnc12 (stereo not drawn) [Example 150, 4-(3-isopropyl-2-(8-methoxy-[1,2,4]triazolo[1,5-a]pyridin-6-yl)-1H-indol-5-yl)-N-methyl-N-(2-(methylsulfonyl)ethyl)cyclohexanamine] | 1680 nM | 0.35 nM | 0.44 nM
3 | Cc1c(-c2[nH]c3ccc(C4CCC(N(C)CCS(C)(=O)=O)CC4)cc3c2C(C)C)cn2ncnc2c1C (stereo not drawn) [Example 151] | 3340 nM | 0.62 nM | 0.37 nM
4 | COc1cc(-c2[nH]c3ccc(C4CCC(C)(NC(=O)CN(C)C)CC4)cc3c2C(C)C)cn2ncnc12 (stereo not drawn) [Example 154, 2-(dimethylamino)-N-(4-(3-isopropyl-2-(8-methoxy-[1,2,4]triazolo[1,5-a]pyridin-6-yl)-1H-indol-5-yl)-1-methylcyclohexyl)acetamide] | 5680 nM | 4 nM | 12 nM
5 | CNCC(=O)NC1(C)CCC(c2ccc3[nH]c(-c4cc(OC)c5ncnn5c4)c(C(C)C)c3c2)CC1 (stereo not drawn) [Example 155, N-(4-(3-isopropyl-2-(8-methoxy-[1,2,4]triazolo[1,5-a]pyridin-6-yl)-1H-indol-5-yl)-1-methylcyclohexyl)-2-(methylamino)acetamide] | 3700 nM | 6 nM | 24 nM
6 | Cc1cc(-c2[nH]c3ccc(C4CCC(C(=O)NC5CCN(C(C)C)CC5)CC4)cc3c2C(C)C)cn2ncnc12 (stereo not drawn) [Example 158] | 2290 nM | 0.47 nM | 3.2 nM
7 | Cc1cc(-c2[nH]c3ccc(C4CCC(C(=O)N5CCOCC5)CC4)cc3c2C(C)C)cn2ncnc12 (stereo not drawn) [Example 161] | 4800 nM | 3 nM | 59 nM
8 | COc1cc(-c2[nH]c3ccc(C4CCC(NCC(=O)NC5COC5)CC4)cc3c2C(C)C)cn2ncnc12 (stereo not drawn) [Example 164] | 1920 nM | 1 nM | 7.1 nM
9 | COc1cc(-c2[nH]c3ccc(C4CCC(NCC(=O)NC5COC5)CC4)cc3c2C(C)C)cn2ncnc12 (stereo not drawn) [Example 165] | 1990 nM | 0.31 nM | 1.7 nM
10 | CNC(=O)CNC1CCC(c2ccc3[nH]c(-c4cc(OC)c5ncnn5c4)c(C(C)C)c3c2)CC1 (stereo not drawn) [Example 166] | 16900 nM | 4 nM | 18 nM
11 | CNC(=O)CNC1CCC(c2ccc3[nH]c(-c4cc(OC)c5ncnn5c4)c(C(C)C)c3c2)CC1 (stereo not drawn) [Example 167] | 1300 nM | 0.22 nM | 0.62 nM
12 | COC1CCC(c2ccc3[nH]c(-c4cc(C)c5ncnn5c4)c(C(C)C)c3c2)CC1 (stereo not drawn) [Example 168, 6-(3-isopropyl-5-(4-methoxycyclohexyl)-1H-indol-2-yl)-8-methyl-[1,2,4]triazolo[1,5-a]pyridine] | 34400 nM | 15 nM | 265 nM
13 | Cc1cc(-c2[nH]c3ccc(C4CCC(O)CC4)cc3c2C(C)C)ccn1 (stereo not drawn) [Example 173] | > 50000 nM | 46 nM | 56 nM
14 | Cc1cc(-c2[nH]c3ccc(C4CCC(O)CC4)cc3c2C(C)C)ccn1 (stereo not drawn) [Example 174] | > 50000 nM | 164 nM | 518 nM
15 | Cc1cc(-c2[nH]c3ccc(C4CCC(O)(C(F)(F)F)CC4)cc3c2C(C)C)cc(C)n1 (stereo not drawn) [Example 175, 4-(2-(2,6-dimethylpyridin-4-yl)-3-isopropyl-1H-indol-5-yl)-1-(trifluoromethyl)cyclohexanol] | 2140 nM | 37 nM | 119 nM
16 | Cc1cc(-c2[nH]c3ccc(C4CCC(CN(C)C)CC4)cc3c2C(C)C)cc(C)n1 (stereo not drawn) [Example 176, 1-(4-(2-(2,6-dimethylpyridin-4-yl)-3-isopropyl-1H-indol-5-yl)cyclohexyl)-N,N-dimethylmethanamine] | 8890 nM | 26 nM | 55 nM
17 | COc1cc(-c2[nH]c3ccc(C4CCCNC4)cc3c2C(C)C)cn2ncnc12 (stereo not drawn) [Example 181, 6-(3-isopropyl-5-(piperidin-3-yl)-1H-indol-2-yl)-8-methoxy-[1,2,4]triazolo[1,5-a]pyridine] | 1210 nM | 0.4 nM | 2.8 nM
18 | Cc1cc(-c2[nH]c3ccc(C4CCCNC4)cc3c2C(C)C)ccn1 (stereo not drawn) [Example 184] | 866 nM | 12 nM | 3.8 nM
19 | Cc1cc(-c2[nH]c3ccc(C4CCCNC4)cc3c2C(C)C)ccn1 (stereo not drawn) [Example 185] | 1240 nM | 18 nM | 1.9 nM
20 | Cc1cc(-c2[nH]c3ccc(C4CCCNC4)cc3c2C(C)C)cc(C)n1 (stereo not drawn) [Example 186] | 280 nM | 4 nM | 3.6 nM
21 | Cc1cc(-c2[nH]c3ccc(C4CCCNC4)cc3c2C(C)C)cc(C)n1 (stereo not drawn) [Example 187] | 274 nM | 2 nM | 3.9 nM
